# From ChEMBL document CHEMBL4196111, “ROR(GMMA)T Modulating Activity for the Treatment of Cancers” (ACS Med Chem Lett, 2018)
# Biological target: T1, Nuclear receptor ROR-gamma (Mus musculus) (UniProt P51450)
# T1 sequence (whole entry): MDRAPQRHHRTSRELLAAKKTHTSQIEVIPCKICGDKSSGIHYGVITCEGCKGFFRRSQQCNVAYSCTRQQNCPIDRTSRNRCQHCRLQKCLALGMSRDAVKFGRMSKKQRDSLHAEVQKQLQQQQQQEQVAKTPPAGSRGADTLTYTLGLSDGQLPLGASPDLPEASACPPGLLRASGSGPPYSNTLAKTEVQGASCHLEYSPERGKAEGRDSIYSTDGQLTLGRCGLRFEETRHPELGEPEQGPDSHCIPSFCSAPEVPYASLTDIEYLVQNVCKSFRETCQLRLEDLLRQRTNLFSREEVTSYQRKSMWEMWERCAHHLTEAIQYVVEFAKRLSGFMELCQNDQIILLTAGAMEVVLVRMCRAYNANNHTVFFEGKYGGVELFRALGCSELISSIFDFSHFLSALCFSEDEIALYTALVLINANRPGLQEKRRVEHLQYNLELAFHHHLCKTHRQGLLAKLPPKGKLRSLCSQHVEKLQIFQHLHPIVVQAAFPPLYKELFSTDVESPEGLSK
# Test: Modulation of RORgammat in mouse Th17 cells assessed as […] IL17A production at 3 uM relative to control
# Assay type: cell-based
row,Activity,Structure (SMILES)
1,324%,CS(=O)(=O)c1ccc(CNC(=O)c2ccc3c(n2)OCCN3c2cc(C3CC3)nc(C3CC3)c2)c(F)c1
2,572%,CCOC(=O)c1cc(S(=O)(=O)CC)ccc1CNC(=O)c1ccc2c(n1)CCCN2c1cc(C2CC2)nc(C2CC2)c1
3,443%,CS(=O)(=O)c1ccc(CNC(=O)c2ccc3c(c2)OCCC3c2cc(C3CC3)nc(C3CC3)c2)nc1 (stereo not drawn)
4,452%,CS(=O)(=O)c1ccc(CNC(=O)c2ccc3c(n2)CCCN3c2cc(C3CC3)nc(C3CC3)c2)nc1
5,483%,CS(=O)(=O)c1ccc(CNC(=O)c2ccc3c(n2)CCCN3c2cc(C3CC3)nc(C3CC3)c2)c(C(N)=O)c1
6,533%,CCS(=O)(=O)c1ccc(CNC(=O)c2ccc3c(n2)CCCN3c2cc(C3CC3)nc(C3CC3)c2)nc1
7,533%,CS(=O)(=O)c1ccc(C(CO)NC(=O)c2ccc3c(n2)CCCN3c2cc(C3CC3)nc(C3CC3)c2)cc1 (stereo not drawn)
8,373%,CS(=O)(=O)c1ccc(CNC(=O)c2ccc3c(n2)OCCN3c2cc(C3CC3)nc(C3CC3)c2)cc1
